Laboratory results taken from PubChem BioAssay AID2060496 (Molecular Pharmacology Branch, DTP, NCI, 2025).

Test system: 276233-004-R-J1-PDC complex spheroid viability
Assay: Anticancer human tumor 276233-004-R-J1-PDC patient-derived colon adenocarcinoma cell line growth inhibition [GQUAD]
Details: for IC50: curve of first compound; for viability, T/C: stronger effect = lower value
Method in brief: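 Multi-cell-type spheroids of tumor cells with HUVEC and mesenchymal stem cells, treated with drug combinations. Concentrations descend in half-log steps from near clinical Cmax, or from 10 microM where Cmax is unknown; viability read-out.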
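Further: spheroids exposed to drugs for seven days.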
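Wherever viability, T/C is given: 100% = DMSO vehicle control viability.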

Molecule `CC(=O)O[C@H]1C(=O)[C@@]2(C)[C@H]([C@H](OC(=O)c3ccccc3)[C@]3(O)C[C@H](OC(=O)[C@H](O)[C@@H](NC(=O)c4ccccc4)c4ccccc4)C(C)=C1C3(C)C)[C@]1(OC(C)=O)CO[C@@H]1C[C@@H]2O` + CN(C)c1ccc(Nc2c3ccc(NC(=O)CCN4CCCC4)cc3nc3cc(NC(=O)CCN4CCCC4)ccc23)cc1 has an IC50 (second compound 0.0316 µM) of over 10 µM, an IC50 (second compound 0.1 µM) of over 10 µM and an IC50 (second compound 0.316 µM) of over 10 µM. It also gave an IC50 (second compound 1 µM) of 4.25 µM, an IC50 (second compound 3.16 µM) of under 0.0316 µM and an IC50 (second compound 10 µM) of under 0.0316 µM. The viability, T/C (second compound 0.0316 µM, first compound 0.0316 µM) was 86.5%, the viability, T/C (second compound 0.0316 µM, first compound 0.1 µM) was 98.3% and the viability, T/C (second compound 0.0316 µM, first compound 0.316 µM) was 87.9%. It also gave a viability, T/C (second compound 0.0316 µM, first compound 1 µM) of 85.2%, a viability, T/C (second compound 0.0316 µM, first compound 3.16 µM) of 88% and a viability, T/C (second compound 0.0316 µM, first compound 10 µM) of 80.6%. For the same molecule, the viability, T/C (second compound 0.1 µM, first compound 0.0316 µM) was 70.4%, the viability, T/C (second compound 0.1 µM, first compound 0.1 µM) was 82.2% and the viability, T/C (second compound 0.1 µM, first compound 0.316 µM) was 65.8%. For the same molecule, the viability, T/C (second compound 0.1 µM, first compound 1 µM) was 79.7%, the viability, T/C (second compound 0.1 µM, first compound 3.16 µM) was 69.8% and the viability, T/C (second compound 0.1 µM, first compound 10 µM) was 69.8%. For the same molecule, the viability, T/C (second compound 0.316 µM, first compound 0.0316 µM) was 67.5%, the viability, T/C (second compound 0.316 µM, first compound 0.1 µM) was 65.5% and the viability, T/C (second compound 0.316 µM, first compound 0.316 µM) was 57.4%. For the same molecule, the viability, T/C (second compound 0.316 µM, first compound 1 µM) was 54.1%, the viability, T/C (second compound 0.316 µM, first compound 3.16 µM) was 67.8% and the viability, T/C (second compound 0.316 µM, first compound 10 µM) was 54.9%. For the same molecule, the viability, T/C (second compound 1 µM, first compound 0.0316 µM) was 52.7%, the viability, T/C (second compound 1 µM, first compound 0.1 µM) was 52.6% and the viability, T/C (second compound 1 µM, first compound 0.316 µM) was 57%. For the same molecule, the viability, T/C (second compound 1 µM, first compound 1 µM) was 55.9%, the viability, T/C (second compound 1 µM, first compound 3.16 µM) was 54.4% and the viability, T/C (second compound 1 µM, first compound 10 µM) was 41.7%. The viability, T/C (second compound 3.16 µM, first compound 0.0316 µM) was 44.4%, the viability, T/C (second compound 3.16 µM, first compound 0.1 µM) was 41.9% and the viability, T/C (second compound 3.16 µM, first compound 0.316 µM) was 37.2%. For the same molecule, the viability, T/C (second compound 3.16 µM, first compound 1 µM) was 49.5%, the viability, T/C (second compound 3.16 µM, first compound 3.16 µM) was 50% and the viability, T/C (second compound 3.16 µM, first compound 10 µM) was 49.7%. The viability, T/C (second compound 10 µM, first compound 0.0316 µM) was 36.8%, the viability, T/C (second compound 10 µM, first compound 0.1 µM) was 44.1% and the viability, T/C (second compound 10 µM, first compound 0.316 µM) was 43.7%. It also gave a viability, T/C (second compound 10 µM, first compound 1 µM) of 44.3%, a viability, T/C (second compound 10 µM, first compound 3.16 µM) of 51.9% and a viability, T/C (second compound 10 µM, first compound 10 µM) of 51.7%.
